Entries after “also recorded” stand apart in the source; their conditions may differ.

Assay [1] concerns the target human Galectin-3 (GAL3) (human) (UniProt P17931). Nature of the assay: cell-based or functional assay.
Assay [2] concerns PD1+ or LAG3+ T cells in BMMC from MM patients. Nature of the assay: Checkpoint (PD1, LAG3) expression on T cells in MM patient BMMC after modulator treatment, flow cytometry. The assay is classed as cell-based, human. Particulars: for upregulation / induction of other immune checkpoints: MM patient BMMC, among clinical grade checkpoint inhibitors and immune agonists evaluated (discussion). How it is done: (§1) BMMC or PBMC from patients with MGUS, SMM, MM or healthy individuals were evaluated by flow cytometry analyses by staining cells with fluorochrome-conjugated mAb specific to each cell surface antigen for 30 minutes at room temperature, followed by LIVE/DEAD reagent staining to confirm viability. Regulatory T cells (Treg) were identified by cell surface staining (CD3, CD4, CD8, CD25), permeabilized using Foxp3/Transcription Factor Staining Buffer Set (eBioscience) and stained for intracellular FOXP3 expression. Myeloid-derived-suppressor cells (MDSC) were identified as G-type MDSC (CD11b+CD33+ HLA-DRlow/−CD14−CD15+) and M-type MDSC (CD11b+CD33+ HLA-DRlow/−CD14+CD15−). Cells were acquired using a BD Fortessa X-20 (BD Biosciences) flow cytometer, and the data was analyzed using DIVA™ v8.0 (BD) or FlowJo v10.0.7 (Tree star, Ashland, OR) software.
(§2) Proliferation of specific cell populations was evaluated using CFSE-based proliferation assays. In brief, MM patient BMMC, PBMC or XBP1/CD138/CS1-specific CTL were labeled with CFSE (Molecular Probes, Eugene, OR) and incubated with clinical grade checkpoint inhibitor (1 μg/ml) or immune agonist (1 μg/ml) in the presence of low dose (20 units) IL-2, with or without stimulation with irradiated MM cells (patients' cells, cell line) or MM lysates. After 4-7 days incubation, the cells were stained with LIVE/DEAD reagent and specific fluorochrome conjugated mAbs, washed, fixed in 2% paraformaldehyde, and acquired using a LSRII Fortessa™ flow cytometer.
On the technique in general: In flow cytometry, cells or beads pass a laser one at a time.

Assay [3] relates to XBP1/CD138/CS1-specific CD8+ CTL stimulated with U266 MM cells. Nature of the assay: CFSE proliferation of XBP1/CD138/CS1-specific CTL in response to HLA-A2+ U266 MM cells. Type of assay: cell-based, human. To be noted: CTL (N=5) treated with antibody, α-LAG3>α-PD-1, FIG. 6B. The procedure:
(§3) XBP1/CD138/CS1-specific CTL were generated ex vivo after four cycles of weekly stimulation of HLA-A2^+ CD3^+ T lymphocytes (N=5) with a cocktail of four peptides containing heteroclitic XBP1 US184-192 (YISPWILAV (SEQ ID NO: 24)), heteroclitic XBP1 SP367-375 (YLFPQLISV (SEQ ID NO: 25)), native CD138260-268 (GLVGLIFAV (SEQ ID NO: 26)) and native CS1239-247 (SLFVLGLFL (SEQ ID NO: 27)), as described previously.
as §2

A further assay deals with U266 MM cells. Nature of the assay: CD107a degranulation and intracellular IFN-γ production of XBP1/CD138/CS1-specific CTL against MM. Particulars: CTL treated 1 μg/ml antibody 24 hours, then cultured with U266; FIG. 6C. Type of assay: cell-based, human. How it is done:
as §3
The anti-tumor activities of MM-specific CTL were measured by CD107a degranulation and IFN-γ production against MM. In brief, XBP1/CD138/CS1-specific CTL were treated with clinical grade anti-PD1 or anti-LAG3 (1 μg/ml) for 24 hours. The cells were then cultured with U266 MM cells in the presence of CD107a mAb. After 1-hour incubation, Brefeldin A (BD) and Monensin (BD) were added, and cultures were incubated for an additional 5 hours. Cells were harvested, washed in PBS, stained with LIVE/DEAD reagent, washed, incubated with fluorochrome conjugated mAb to identify T cells, allowing for assays of their functional activity against MM. After surface staining, cells were fixed/permeabilized, stained for Th1 cytokines, washed with Perm/Wash solution (BD), and analyzed by flow cytometry. MP-CTL specific CD107a degranulation and Th1 cytokine production were analyzed using DIVA™ v8.0 or FlowJo v10.0.7 software.

Assay [4] has as its system CD4+ Treg in BMMC from MM patients. In words: Treg proliferation in MM patient BMMC after modulator treatment. Type of assay: cell-based, human. To be noted: for Treg proliferation: BMMC of MM patients (N=5), single agents compared, FIG. 5B. How it is done:
as §1, §2

The subject of assay [5] is T cells in BMMC from MM patients. Nature of the assay: CFSE T cell proliferation in MM patient BMMC stimulated with irradiated tumor cells or tumor lysates. Type of assay: cell-based, human. To be noted: BMMC (N=5), FIG. 9; for enhancement of tumor-lysate-induced T cell response: checkpoint inhibitors (anti-LAG3>anti-PD1) more than immune agonists. The procedure: (§4) Multiple myeloma (MM) cell lines U266, McCAR, HSB2, MMIS, RPMI8226, OPM2, H929, ANBL6, OCIMY5, AMO1 and KMS11 were obtained from ATCC (Manassas, VA). The T2 cell line, a human B and T cell hybrid expressing HLA-A2 molecules, was provided by Dr. J. Molldrem (University of Texas M. D. Anderson Cancer Center, Houston, TX). The cell lines were cultured in DMEM media supplemented with 10% fetal calf serum (FCS; BioWhittaker, Walkersville, MD), 100 IU/ml penicillin, and 100 μg/ml streptomycin (Gibco-Life Technologies, Rockville, MD). A mixture of ten MM cell lines was utilized to prepare tumor cell lysates by repeated (10×) cycles of freeze (−140° C.)/thaw (37° C.) or prepared as irradiated (20 Gy) whole tumor cells as sources of MM antigen stimulation.
as §2

In assay [6] the test system is T cells (CD3+, CD4+ Th, CD8+ Tc) in BMMC from MM patients. Nature of the assay: CFSE proliferation of T cells in MM patient BMMC treated with checkpoint inhibitor, immune agonist or LAG3-ligand antibody. The assay is classed as cell-based, human. To be noted: for CD3+ T cell proliferation: BMMC, newly diagnosed, relapsed or relapsed/refractory MM (N=10), vs untreated control.
Source text: BM aspirates and peripheral blood (PB) samples were obtained from patients with MGUS [BM: N=5, PB: N=5] and SMM [BM: N=5, PB: N=5] and patients with MM (Newly Diagnosed [BM: N=15, PB: N=10], Relapsed [BM: N=12, PB: N=12], Relapsed/Refractory [BM: N=15, PB: N=12]) after informed consent, in accordance with the Declaration of Helsinki, and with approval by the Institutional Review Board at Dana-Farber Cancer Institute (Boston, MA). In addition, healthy individuals BM [N=5] or leukapheresis [N=5] products were purchased from either AllCells (Alameda, CA) or the Blood Donor Center at Boston Children's Hospital (Boston, MA), respectively. Mononuclear cells were isolated from BM (BMMC) or PB (PBMC) by standard density gradient centrifugation using Ficoll-Paque™ Plus (Amersham Pharmacia Biotech AB, Uppsala Sweden) and used in these studies.
as §2

The subject of assay [7] is CD3+ T cells in PBMC from MM patients. In words: CFSE T cell proliferation in MM patient PBMC with or without MM lysate stimulation. Type of assay: cell-based, human. Particulars: newly diagnosed (N=6) or relapsed (N=3) MM, presence or absence of MM lysate, vs anti-PD1, anti-OX40, anti-GITR, FIG. 1C. The procedure: as §4
BM aspirates and peripheral blood (PB) samples were obtained from patients with MGUS [BM: N=5, PB: N=5] and SMM [BM: N=5, PB: N=5] and patients with MM (Newly Diagnosed [BM: N=15, PB: N=10], Relapsed [BM: N=12, PB: N=12], Relapsed/Refractory [BM: N=15, PB: N=12]) after informed consent, in accordance with the Declaration of Helsinki, and with approval by the Institutional Review Board at Dana-Farber Cancer Institute (Boston, MA). […]
Proliferation of specific cell populations was evaluated using CFSE-based proliferation assays. […]

Where [8] appears, read: BMMC of MM patients (N=10), FIG. 5A.
The mark [9] stands for this setting: BMMC of MM patients (N=10), antibody 1 μg/ml, low dose IL-2, FIG. 1B.
The mark [10] stands for this setting: antibody 1 μg/ml, low dose IL-2, FIG. 1B.

Chain of UniProt P17931 (P17931 2-250 limits assumed): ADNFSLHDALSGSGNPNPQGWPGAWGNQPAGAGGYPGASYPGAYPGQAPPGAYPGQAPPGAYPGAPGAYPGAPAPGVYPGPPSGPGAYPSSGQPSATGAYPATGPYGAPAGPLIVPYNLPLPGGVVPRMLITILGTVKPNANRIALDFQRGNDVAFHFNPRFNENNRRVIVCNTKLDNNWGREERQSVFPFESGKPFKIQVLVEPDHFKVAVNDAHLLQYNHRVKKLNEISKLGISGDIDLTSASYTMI

For “Anti-GAL3 antibody (BD, Clone B2C10; Cat Nos.: 565676-565678, and 565682)”, in assay [1], the proliferation of CD4+Th cells in newly diagnosed MM patient BMMC, Patient #1 was 13%; the proliferation of CD4+Th cells in newly diagnosed MM patient BMMC, Patient #2 was determined as 9%; the proliferation of CD8+Tc cells in newly diagnosed MM patient BMMC, Patient #1 was 45%; the proliferation of CD8+Tc cells in newly diagnosed MM patient BMMC, Patient #2 came out at 38%.

For the substance “anti-LAG3: Clinical grade checkpoint inhibitor, anti-LAG3 antibody Relatlimab, provided by Bristol-Myers Squibb”, the “upregulation of PD1 and LAG3 expression on T cells” value in assay [2] (setting [8]) is recorded as “induce upregulation”. Besides, the “upregulation / induction of other immune checkpoints” value (“upregulation / induction” for short) in assay [2] is recorded as “lowest level”. Further, the “proliferation of total CD8+ T cells and Central Memory, Effector Memory, CD28+ and CD38+ CTL subsets” value in assay [3] was “significantly increase; also recorded: enhanced proliferation”. In addition, in the assay on U266 MM cells, the CD107a degranulation entry is reported as “highest anti-tumor activities” and the IFN-γ production entry is recorded as “highest anti-tumor activities”. Further, the “impact of treatment on G-type MDSC and Tregs” value in assay [4] (BM milieu of MM patients (discussion)) is recorded as “low”. Besides, the Treg proliferation result in assay [4] is listed as “lowest induction; also recorded: lowest level”. Also, in assay [5], the “enhancement of tumor-lysate-induced T cell response” value is listed as “enhanced to a greater extent”. In addition, the T cell proliferation entry in assay [5] (mixture of ten MM cell lines as irradiated whole cells or tumor lysates, vs other immune modulators) is “significantly higher”. In assay [6] (setting [9]), the “proliferation of CD4+ Th cells” value is “significant increase; also recorded: highest proliferation” and the “proliferation of CD8+ Tc cells” value is recorded as “increased; also recorded: highest proliferation”. For the same substance, in assay [6] (setting [10]), the “CD3+ T cell proliferation” value is on record as “triggered”. Besides, the “effector T cell proliferation” value in assay [6] (among clinical grade checkpoint inhibitors and immune agonists evaluated (discussion)) is reported as “most robust”. In assay [6] (discussion), the “T cell responses in BMMC/PBMC from MM patients compared with healthy donors” value is on record as “significantly increased”. In assay [7], the T cell proliferation entry is recorded as “significantly (*p<0.05) higher”.

“anti-PD1: Clinical grade checkpoint inhibitor, anti-PD1 antibody Nivolumab, provided by Bristol-Myers Squibb”: in assay [2] (setting [8]), the “proliferation of T cells expressing an alternative immune checkpoint” value is listed as “to a greater extent than anti-LAG3 treatment”; the “upregulation of PD1 and LAG3 expression on T cells” value was “induce upregulation”. Also, the “upregulation / induction” value in assay [2] is given as “highest level”. Besides, in assay [2] (listed as anti-PD-1 antibody), the “upregulation / induction” value was “upregulate”. The “proliferation of total CD8+ T cells and Central Memory, Effector Memory, CD28+ and CD38+ CTL subsets” value in assay [3] was “significantly increase”. In addition, the Treg proliferation result in assay [4] is reported as “high induction; also recorded: highest level”. Also, the “expansion of Treg cells, single agent” value in assay [4] (BMMC, relapsed/refractory MM (N=3), FIG. 5C) is reported as “significant (*p<0.05) expansion”. Further, the “enhancement of tumor-lysate-induced T cell response” value in assay [5] was “enhanced to a greater extent”. For the same substance, the “proliferation of CD4+ Th cells” value in assay [6] (setting [9]) is on record as “significant increase”. The “CD3+ T cell proliferation” value in assay [6] (setting [10]) is “triggered”.

Source of the values: patent publication US20240285740A1, “COMPOSITIONS AND METHODS FOR TREATING CANCER” (Dana-Farber Cancer Institute, Inc., priority 2021, published 2024).
